# Test results as given in publication PMC9090415, “Discovery of small molecule inhibitors of Plasmodium falciparum apicoplast DNA polymerase” (Journal of Enzyme Inhibition and Medicinal Chemistry, 2022).
# Molecular target: P. falciparum apicoplast DNA polymerase (Pf-apPOL) (Plasmodium falciparum, UniProt Q8ILY1)
# Test: Fluorescence-based high-throughput DNA polymerase assay (molecular beacon), primary screen and dose-response
# Format: biochemical
# Conditions: for DNA Pol: 90 min, 10 µM
# Description: The HT assay employs a molecular beacon, a stem-loop DNA template with a Cy3 dye and the Black Hole Quencher on the 3′ and 5′ ends of the DNA, respectively. Pf-apPOL concentration is based on a calculated absorptivity of ε280 = 56750 M^−1 cm^−1. Reactions were carried out at 25 °C, using Corning 3575 […] (well-volume, 20 µL). Assays testing for compound inhibition composed of reaction buffer (pH 7.9 in 50 mM potassium acetate, 20 mM Tris-acetate and 10 mM magnesium acetate), Pf-apPOL (20 nM), DNA substrate (20 nM), dNTPs (6 µM), and compound (10 µM in DMSO). The DNA and nucleotide substrates (dNTPs) were at concentrations of 20 nM and 6 µM, respectively, in the assay. Pf-apPOL was incubated in the reaction buffer with dNTPs and the compound of interest (10 µM, in the assay) at 25 °C for 10 min. The DNA substrate was then added and the reaction was allowed to proceed for 90 min at 25 °C.
# Each assay plate contained 16 negative controls (no Pf-apPOL, DMSO present) and 16 positive controls (Pf-apPOL present, no DMSO). The fluorescence of each well was determined using a BioTek Synergy Neo fluorescence plate reader using excitation and emission wavelengths of 555 and 570 nm, respectively.
# In the above, Min is the average of fluorescence emission of the negative controls (substrate only), Max the average fluorescence emission from the positive controls (enzyme + substrate), and Test the emission from the assays in the presence of compounds (enzyme + compound + substrates). […] […] The IC50 of each compound was determined using Equation (2): (2) IC50= Vmax/(1+ (I/IC50)^n)
# In the above, n measures cooperativity, with n > 1 indicating synergistic binding of more than a single molecule of the compound.
# To identify apPOL inhibitors we utilised our previously developed high-throughput DNA polymerase assay. The HT assay is based on a molecular beacon DNA template that forms a stem-loop with a Cy3 dye and the Black Hole Quencher on the 3′ and 5′ ends of the DNA, respectively. DNA polymerase activity extends an annealed primer through the stem region, displacing the fluorophore from the quencher, thereby increasing its fluorescence (Figure 1(A)). The assay accurately recapitulates the kinetic behaviour of apPOL, as measured through more conventional low-throughput gel-based assays. The Z′ factor for the assay described here was 0.9 across all plates (data not shown).
# Figure 1. High-throughput screening. (A) The fluorescent-based DNA polymerase assay used to screen the compound libraries. The DNA template strand is a hairpin loop with a primer annealed to the loop. The 3’ end of the primer is 11 bases away from the 6 bp duplex. Strand displacement activity of the DNA polymerase separates the Cy3 dye from the Black hole quencher leading to an increase in fluorescent signal. (B) The high-throughput assay workflow. The DNA polymerase is incubated with […] compound for 10 min prior to addition of the hairpin substrate. The reaction is quenched at 3 different time points and the fluorescent signal is measured and % inhibition is determined using the provided equation.
# [1] = primary screen value of the 186 hits, unit not given
# P. falciparum apicoplast DNA polymerase (Pf-apPOL), sequence (Q8ILY1 entry or part of it): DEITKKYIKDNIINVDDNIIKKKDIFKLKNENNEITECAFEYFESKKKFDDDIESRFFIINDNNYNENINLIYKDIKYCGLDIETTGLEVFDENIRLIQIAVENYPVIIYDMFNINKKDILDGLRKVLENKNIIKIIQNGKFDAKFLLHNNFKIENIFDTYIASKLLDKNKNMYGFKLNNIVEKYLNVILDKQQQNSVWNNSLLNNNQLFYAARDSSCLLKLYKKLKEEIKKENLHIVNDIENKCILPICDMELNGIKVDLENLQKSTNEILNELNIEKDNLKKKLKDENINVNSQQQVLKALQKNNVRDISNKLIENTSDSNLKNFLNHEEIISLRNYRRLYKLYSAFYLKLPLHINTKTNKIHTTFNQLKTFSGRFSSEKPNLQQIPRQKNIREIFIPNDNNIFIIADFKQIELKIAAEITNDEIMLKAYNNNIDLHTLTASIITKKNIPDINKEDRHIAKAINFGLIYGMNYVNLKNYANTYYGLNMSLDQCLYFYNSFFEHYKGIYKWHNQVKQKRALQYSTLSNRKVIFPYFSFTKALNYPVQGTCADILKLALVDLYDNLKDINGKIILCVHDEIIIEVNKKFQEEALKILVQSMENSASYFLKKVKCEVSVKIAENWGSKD
structure (smiles),measurement,setting,value
O=C1C(=Cc2ccncc2)Oc2c1ccc1c2CN(Cc2ccc3c(c2)OCO3)CO1 [KU0199357],% inhibition Apo pol 10',"DRC-1, concentration 2.5",-2.582%
same,% inhibition Apo pol 10',"DRC-1, concentration 5",7.288%
same,% inhibition Apo pol 10',"DRC-1, concentration 10",20.9046%
same,% inhibition Apo pol 10',"DRC-1, concentration 20",43.4481%
same,% inhibition Apo pol 10',"DRC-1, concentration 40",58.0959%
same,% inhibition Apo pol 10',"DRC-1, concentration 80",67.6881%
same,% inhibition Apol 90',"DRC-1, 90', concentration 2.5",5.905%
same,% inhibition Apol 90',"DRC-1, 90', concentration 5",17.1592%
same,% inhibition Apol 90',"DRC-1, 90', concentration 10",34.0534%
same,% inhibition Apol 90',"DRC-1, 90', concentration 20",57.2301%
same,% inhibition Apol 90',"DRC-1, 90', concentration 40",66.3839%
same,% inhibition Apol 90',"DRC-1, 90', concentration 80",71.081%
same,% inhibition apPOL 180',"DRC-1, concentration 2.5",18.2%
same,% inhibition apPOL 180',"DRC-1, concentration 5",33.6281%
same,% inhibition apPOL 180',"DRC-1, concentration 10",52.8401%
same,% inhibition apPOL 180',"DRC-1, concentration 20",75.9569%
same,% inhibition apPOL 180',"DRC-1, concentration 40",84.0502%
same,% inhibition apPOL 180',"DRC-1, concentration 80",84.7923%
same,% inhibition Apo pol 5',"DRC-2, 5', concentration 2.5",6%
same,% inhibition Apo pol 5',"DRC-2, 5', concentration 5",15%
same,% inhibition Apo pol 5',"DRC-2, 5', concentration 10",35%
same,% inhibition Apo pol 5',"DRC-2, 5', concentration 20",37%
same,% inhibition Apo pol 5',"DRC-2, 5', concentration 40",46%
same,% inhibition Apo pol 5',"DRC-2, 5', concentration 80",40%
same,% inhibition Apol 40',"DRC-2, 40', concentration 2.5",1.87%
same,% inhibition Apol 40',"DRC-2, 40', concentration 5",3%
same,% inhibition Apol 40',"DRC-2, 40', concentration 10",31%
same,% inhibition Apol 40',"DRC-2, 40', concentration 20",32%
same,% inhibition Apol 40',"DRC-2, 40', concentration 40",39%
same,% inhibition Apol 40',"DRC-2, 40', concentration 80",34%
same,% inhibition ApPOL 90',"DRC-2, 90', concentration 2.5",-1.19%
same,% inhibition ApPOL 90',"DRC-2, 90', concentration 5",-9%
same,% inhibition ApPOL 90',"DRC-2, 90', concentration 10",26%
same,% inhibition ApPOL 90',"DRC-2, 90', concentration 20",27%
same,% inhibition ApPOL 90',"DRC-2, 90', concentration 40",36%
same,% inhibition ApPOL 90',"DRC-2, 90', concentration 80",34%
same,% inhibition apPOL 180',"DRC-2, concentration 2.5",-7%
same,% inhibition apPOL 180',"DRC-2, concentration 5",-87%
same,% inhibition apPOL 180',"DRC-2, concentration 10",11%
same,% inhibition apPOL 180',"DRC-2, concentration 20",13%
same,% inhibition apPOL 180',"DRC-2, concentration 40",28%
same,% inhibition apPOL 180',"DRC-2, concentration 80",35%
same,% inhibition Apo pol 5',"conc. 10, 5', DRC-2",35%
same,% inhibition Apol 40',"conc. 80, 40', DRC-2",34%
same,% inhibition ApPOL 90',"conc. 80, 90', DRC-2",34%
same,% inhibition apPOL 180',"conc. 80, DRC-2",35%
same,DNA Pol,primary screen value by plate and well,32
same,DNA Pol,[1],32
"CCOc1cccc2cc(C(=O)Nc3nnc(-c4ccno4)o3)oc12 [Molecule 28, CCOc1cccc2c1oc(c2)C(=O)Nc1nnc(o1)c1ccno1]",% inhibition Apo pol 10',"DRC-1, concentration 2.5",10.6274%
same,% inhibition Apo pol 10',"DRC-1, concentration 5",33.541%
same,% inhibition Apo pol 10',"DRC-1, concentration 10",66.1299%
same,% inhibition Apo pol 10',"DRC-1, concentration 20",85.0301%
same,% inhibition Apo pol 10',"DRC-1, concentration 40",91.7568%
same,% inhibition Apo pol 10',"DRC-1, concentration 80",93.7028%
same,% inhibition Apol 90',"DRC-1, 90', concentration 2.5",2.531%
same,% inhibition Apol 90',"DRC-1, 90', concentration 5",15.4654%
same,% inhibition Apol 90',"DRC-1, 90', concentration 10",41.5074%
same,% inhibition Apol 90',"DRC-1, 90', concentration 20",63.6828%
same,% inhibition Apol 90',"DRC-1, 90', concentration 40",78.9695%
same,% inhibition Apol 90',"DRC-1, 90', concentration 80",87.3573%
same,% inhibition apPOL 180',"DRC-1, concentration 2.5",-1.99%
same,% inhibition apPOL 180',"DRC-1, concentration 5",5.082%
same,% inhibition apPOL 180',"DRC-1, concentration 10",24.8097%
same,% inhibition apPOL 180',"DRC-1, concentration 20",44.8371%
same,% inhibition apPOL 180',"DRC-1, concentration 40",65.9166%
same,% inhibition apPOL 180',"DRC-1, concentration 80",81.0763%
same,% inhibition Apo pol 5',"DRC-2, 5', concentration 20 (unit not given)",45%
same,% inhibition Apo pol 5',"DRC-2, 5', concentration 40 (unit not given)",45%
same,% inhibition Apol 40',"DRC-2, 40', concentration 80 (unit not given)",66%
same,% inhibition ApPOL 90',"DRC-2, 90', concentration 10 (unit not given)",45%
same,% inhibition ApPOL 90',"DRC-2, 90', concentration 40 (unit not given)",66%
same,% inhibition Apo pol 5',"DRC-2, 5', concentration 2.5",16%
same,% inhibition Apo pol 5',"DRC-2, 5', concentration 5",28%
same,% inhibition Apo pol 5',"DRC-2, 5', concentration 10",46%
same,% inhibition Apo pol 5',"DRC-2, 5', concentration 20",45%
same,% inhibition Apo pol 5',"DRC-2, 5', concentration 40",45%
same,% inhibition Apo pol 5',"DRC-2, 5', concentration 80",39%
same,% inhibition Apol 40',"DRC-2, 40', concentration 2.5",14%
same,% inhibition Apol 40',"DRC-2, 40', concentration 5",24%
same,% inhibition Apol 40',"DRC-2, 40', concentration 10",50%
same,% inhibition Apol 40',"DRC-2, 40', concentration 20",57%
same,% inhibition Apol 40',"DRC-2, 40', concentration 40",64%
same,% inhibition Apol 40',"DRC-2, 40', concentration 80",66%
same,% inhibition ApPOL 90',"DRC-2, 90', concentration 2.5",11%
same,% inhibition ApPOL 90',"DRC-2, 90', concentration 5",20%
same,% inhibition ApPOL 90',"DRC-2, 90', concentration 10",45%
same,% inhibition ApPOL 90',"DRC-2, 90', concentration 20",56%
same,% inhibition ApPOL 90',"DRC-2, 90', concentration 40",66%
same,% inhibition ApPOL 90',"DRC-2, 90', concentration 80",70%
same,% inhibition apPOL 180',"DRC-2, concentration 2.5",2%
same,% inhibition apPOL 180',"DRC-2, concentration 5",5%
same,% inhibition apPOL 180',"DRC-2, concentration 10",29%
same,% inhibition apPOL 180',"DRC-2, concentration 20",44%
same,% inhibition apPOL 180',"DRC-2, concentration 40",61%
same,% inhibition apPOL 180',"DRC-2, concentration 80",72%
same,DNA Pol,[1],79
same,DNA Pol,"primary screen value, head ""DNA Pol"", unit not given",79
